The subject of the first experiment is VSVD51-GFP in 786-0 cells. In kind it is cell-based, human.
Details: not given
As for `[O]=[V]([O-])([O-])[O-]` [Vanadate, vanadate, reference compound], the “Approximate Peak Viral Sensitizer Dose” value amounted to 200 µM and the “Viral sensitization activity / VSVD51 spread (in words)” value is listed as “increase in GFP foci”.

In the case of vanadium (IV) citrate [CDOS139], the “Viral sensitization activity / VSVD51 spread (in words)” value is listed as “exhibited viral sensitization activity”.

For vanadium (V) citrate [CDOS140], the “Approximate Peak Viral Sensitizer Dose” value was 30 µM and the “Viral sensitization activity / VSVD51 spread (in words)” value was “exhibited viral sensitization activity”.

As for vanadium (V) citrate peroxo [CDOS141], the “Approximate Peak Viral Sensitizer Dose” value is 50 µM and the “Viral sensitization activity / VSVD51 spread (in words)” value is recorded as “exhibited viral sensitization activity”.

The next experiment deals with oncolytic RNA viruses including vesicular stomatitis virus (VSV) and measles. The note with it: cited from earlier work.
With `Cc1occc(=O)c1[O-].Cc1occc(=O)c1[O-].[O]=[V+2]` [BMOV, bismaltolatoxovanadate], the “Replication and spread of oncolytic RNA viruses (in words)” value was “improve the replication and spread of oncolytic RNA viruses”.

On to `[O]=[V]([O-])([O-])[O-]` [orthovanadate], for which the “Replication and spread of oncolytic RNA viruses (in words)” value is “improve the replication and spread of oncolytic RNA viruses”.

The values are drawn from patent publication US20240293352A1 (priority 2021, published 2024).
